The target of one test is Rho kinase 1 (Homo sapiens, UniProt Q13464). The test is described as follows: In vitro Rho kinase inhibitory activity assay (ADP-Glo kit, Myelin Basic Protein substrate). It counts as biochemical. As to conditions: 10 μM ATP, 25° C., read-out: ROCK1 inhibitory activity (Ki, range of activity). The protocol:
(§1) The effectiveness of compounds of the present invention to inhibit Rho kinase activity can be determined in a 10 μl assay containing 40 mM Tris pH7.5, 20 mM MgCl2 0.1 mg/ml BSA, 50 μM DTT and 2.5 μM peptide substrate (Myelin Basic Protein) using an ADP-Glo kit (Promega). Compounds were dissolved in DMSO such that the final concentration of DMSO was 1% in the assay. All reactions/incubations are performed at 25° C. Compound (2 ul) and either Rho kinase 1 or 2 (4 μl) were mixed and incubated for 30 mins. Reactions were initiated by addition of ATP (4 μl) such that the final concentration of ATP in the assay was 10 μM. After a 1 hour incubation 10 μl of ADP-Glo Reagent was added and after a further 45 minute incubation 20 ul of Kinase Detection Buffer was added and the mixture incubated for a further 30 minutes. The luminescent signal was measured on a luminometer. […] Compounds were tested in dose-response format and the inhibition of kinase activity was calculated at each concentration of compound. To determine the IC50 (concentration of compound required to inhibit 50% of the enzyme activity) data were fit to a plot of % inhibition vs Log10 compound concentration using a sigmoidal fit with a variable slope and fixing the maximum to 100% and the minimum to 0%. To determine the Ki values the Cheng-Prusoff equation was utilized (Ki=IC50/(1+[S]/Km).

The next test deals with Rho kinase 2 (Homo sapiens, UniProt O75116). Described as above. It is filed as biochemical. As to conditions: 10 μM ATP, 25° C., read-out: ROCK2 inhibitory activity (Ki, range of activity). The protocol: as §1
Chain of Rho kinase 2 (O75116 whole entry): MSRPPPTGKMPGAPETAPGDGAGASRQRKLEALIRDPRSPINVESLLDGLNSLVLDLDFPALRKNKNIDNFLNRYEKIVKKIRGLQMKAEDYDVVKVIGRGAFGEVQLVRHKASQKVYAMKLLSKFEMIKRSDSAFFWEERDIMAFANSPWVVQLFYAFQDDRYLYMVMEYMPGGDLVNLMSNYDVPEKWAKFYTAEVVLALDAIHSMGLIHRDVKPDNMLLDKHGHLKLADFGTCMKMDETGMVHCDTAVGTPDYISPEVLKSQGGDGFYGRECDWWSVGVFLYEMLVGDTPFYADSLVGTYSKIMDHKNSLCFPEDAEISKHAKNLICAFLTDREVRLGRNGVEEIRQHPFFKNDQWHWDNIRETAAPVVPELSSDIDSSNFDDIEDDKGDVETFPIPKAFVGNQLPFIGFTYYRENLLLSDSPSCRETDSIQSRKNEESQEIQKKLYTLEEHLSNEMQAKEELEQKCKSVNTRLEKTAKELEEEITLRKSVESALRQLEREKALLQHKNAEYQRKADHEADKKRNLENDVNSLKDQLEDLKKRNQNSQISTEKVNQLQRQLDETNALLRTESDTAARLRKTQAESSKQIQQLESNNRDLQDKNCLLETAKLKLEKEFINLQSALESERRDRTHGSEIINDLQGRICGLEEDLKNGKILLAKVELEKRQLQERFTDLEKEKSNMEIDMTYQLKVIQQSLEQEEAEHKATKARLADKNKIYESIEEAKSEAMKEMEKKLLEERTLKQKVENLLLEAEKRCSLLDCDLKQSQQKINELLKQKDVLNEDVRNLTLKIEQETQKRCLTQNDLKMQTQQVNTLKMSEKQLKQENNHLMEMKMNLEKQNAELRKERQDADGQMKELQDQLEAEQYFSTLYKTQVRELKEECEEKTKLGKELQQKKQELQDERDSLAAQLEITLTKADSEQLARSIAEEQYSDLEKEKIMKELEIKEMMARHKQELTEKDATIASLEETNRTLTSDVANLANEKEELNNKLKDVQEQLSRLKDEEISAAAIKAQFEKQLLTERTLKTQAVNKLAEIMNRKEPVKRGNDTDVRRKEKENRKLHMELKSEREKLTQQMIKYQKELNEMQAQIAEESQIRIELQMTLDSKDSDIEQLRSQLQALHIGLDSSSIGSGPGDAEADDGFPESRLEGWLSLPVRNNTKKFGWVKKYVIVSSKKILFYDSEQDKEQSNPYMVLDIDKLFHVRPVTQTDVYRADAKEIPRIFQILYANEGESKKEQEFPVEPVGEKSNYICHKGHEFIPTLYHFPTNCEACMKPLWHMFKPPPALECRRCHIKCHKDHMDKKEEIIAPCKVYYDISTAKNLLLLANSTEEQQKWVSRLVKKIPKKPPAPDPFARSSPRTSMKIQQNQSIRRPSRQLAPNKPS

pKi: −log10 of the molar value.

Chain of Rho kinase 1 (Q13464 whole entry): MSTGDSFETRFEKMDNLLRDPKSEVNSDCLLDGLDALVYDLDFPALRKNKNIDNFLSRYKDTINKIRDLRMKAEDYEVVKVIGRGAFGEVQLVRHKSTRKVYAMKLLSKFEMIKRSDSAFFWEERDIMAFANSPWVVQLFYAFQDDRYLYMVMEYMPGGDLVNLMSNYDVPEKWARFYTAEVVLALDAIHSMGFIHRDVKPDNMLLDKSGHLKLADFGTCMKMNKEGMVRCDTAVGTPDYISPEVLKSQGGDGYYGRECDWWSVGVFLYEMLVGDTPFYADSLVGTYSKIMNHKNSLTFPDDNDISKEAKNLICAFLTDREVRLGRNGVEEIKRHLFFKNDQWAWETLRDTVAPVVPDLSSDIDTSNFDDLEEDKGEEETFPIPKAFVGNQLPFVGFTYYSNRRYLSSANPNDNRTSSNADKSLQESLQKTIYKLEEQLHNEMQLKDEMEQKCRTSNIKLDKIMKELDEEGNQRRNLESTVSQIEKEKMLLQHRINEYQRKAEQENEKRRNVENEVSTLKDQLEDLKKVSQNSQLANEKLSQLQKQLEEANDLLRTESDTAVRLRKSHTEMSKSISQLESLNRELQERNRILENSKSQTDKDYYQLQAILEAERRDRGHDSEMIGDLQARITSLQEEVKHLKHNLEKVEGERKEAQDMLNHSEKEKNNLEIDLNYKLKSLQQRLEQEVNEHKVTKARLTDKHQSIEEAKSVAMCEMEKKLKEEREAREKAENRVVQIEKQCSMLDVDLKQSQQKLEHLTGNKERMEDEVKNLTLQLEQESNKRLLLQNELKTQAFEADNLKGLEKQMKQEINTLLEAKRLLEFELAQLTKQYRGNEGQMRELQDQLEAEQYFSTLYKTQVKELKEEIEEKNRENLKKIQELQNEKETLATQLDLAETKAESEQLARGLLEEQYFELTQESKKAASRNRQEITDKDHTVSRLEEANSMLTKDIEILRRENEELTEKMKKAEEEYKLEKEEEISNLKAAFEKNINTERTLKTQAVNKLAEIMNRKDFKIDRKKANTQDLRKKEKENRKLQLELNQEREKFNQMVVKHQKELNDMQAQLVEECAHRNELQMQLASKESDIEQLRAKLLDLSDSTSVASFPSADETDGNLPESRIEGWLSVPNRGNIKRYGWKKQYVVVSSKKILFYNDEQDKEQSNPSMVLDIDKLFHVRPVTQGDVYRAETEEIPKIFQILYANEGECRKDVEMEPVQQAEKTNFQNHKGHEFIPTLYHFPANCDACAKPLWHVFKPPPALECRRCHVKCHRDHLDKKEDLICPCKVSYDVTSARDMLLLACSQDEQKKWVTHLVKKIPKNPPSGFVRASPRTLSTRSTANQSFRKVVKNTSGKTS

In the case of `CC1=C(C(=O)Nc2ccc3cnccc3c2)C(c2ccc(C(F)(F)F)c(F)c2)n2nc(C(=O)N(C)CCN3CCCCC3)cc2N1` (single isomer, unassigned) [Example 78A, 7-(3-fluoro-4-(trifluoromethyl)phenyl)-N6-(isoquinolin-6-yl)-N2,5-dimethyl-N2-(2-(piperidin-1-yl)ethyl)-4,7-dihydropyrazolo[1,5-a]pyrimidine-2,6-dicarboxamide], the values for the pKi on Rho kinase 1 and at Rho kinase 2 were 6.30 to 7.30 and above 7.30, respectively.
Take `CC1=C(C(=O)Nc2ccc3cnccc3c2)C(c2ccc(C(F)(F)F)c(F)c2)n2nc(C(=O)N(C)CCN3CCCCC3)cc2N1` (single isomer, unassigned) [Example 78B, 7-(3-fluoro-4-(trifluoromethyl)phenyl)-N6-(isoquinolin-6-yl)-N2,5-dimethyl-N2-(2-(piperidin-1-yl)ethyl)-4,7-dihydropyrazolo[1,5-a]pyrimidine-2,6-dicarboxamide]: the pKi on Rho kinase 1 and on Rho kinase 2 was above 7.30 in each case.
In the case of `CC1=C(C(=O)Nc2ccc3cnccc3c2)C(c2ccc(C(F)(F)F)c(F)c2)n2nc(CN(C)C)cc2N1` (single isomer, unassigned) [Example 94A, 2-((dimethylamino)methyl)-7-(3-fluoro-4-(trifluoromethyl)phenyl)-N-(isoquinolin-6-yl)-5-methyl-4,7-dihydropyrazolo[1,5-a]pyrimidine-6-carboxamide], the pKi at Rho kinase 1 and on Rho kinase 2 was 6.30 to 7.30 each time.
Regarding `CC1=C(C(=O)Nc2ccc3cnccc3c2)C(c2ccc(C(F)(F)F)c(F)c2)n2nc(CN(C)C)cc2N1` (single isomer, unassigned) [Example 94B, 2-((dimethylamino)methyl)-7-(3-fluoro-4-(trifluoromethyl)phenyl)-N-(isoquinolin-6-yl)-5-methyl-4,7-dihydropyrazolo[1,5-a]pyrimidine-6-carboxamide], the negative logarithm of the Ki (pKi) on Rho kinase 1 and on Rho kinase 2 was above 7.30 each time.
As to `CC1=C(C(=O)Nc2ccc3cnccc3c2)C(c2ccc(C(F)(F)F)c(F)c2)n2nc(CN3CCN(C)CC3)cc2N1` (single isomer, unassigned) [Example 96A, 7-(3-fluoro-4-(trifluoromethyl)phenyl)-N-(isoquinolin-6-yl)-5-methyl-2-((4-methylpiperazin-1-yl)methyl)-4,7-dihydropyrazolo[1,5-a]pyrimidine-6-carboxamide], the pKi at Rho kinase 1 and at Rho kinase 2 was 6.30 to 7.30 throughout.
In the case of `CC1=C(C(=O)Nc2ccc3cnccc3c2)C(c2ccc(C(F)(F)F)c(F)c2)n2nc(CN3CCN(C)CC3)cc2N1` (single isomer, unassigned) [Example 96B, 7-(3-fluoro-4-(trifluoromethyl)phenyl)-N-(isoquinolin-6-yl)-5-methyl-2-((4-methylpiperazin-1-yl)methyl)-4,7-dihydropyrazolo[1,5-a]pyrimidine-6-carboxamide], the pKi on Rho kinase 1 and on Rho kinase 2 was above 7.30 in each case.
Turning to `CC1=C(C(=O)Nc2ccc3cnccc3c2)C(c2ccc(C(F)(F)F)c(F)c2)n2nc(CN3CCCCC3)cc2N1` (single isomer, unassigned) [Example 97A, 7-(3-fluoro-4-(trifluoromethyl)phenyl)-N-(isoquinolin-6-yl)-5-methyl-2-(piperidin-1-ylmethyl)-4,7-dihydropyrazolo[1,5-a]pyrimidine-6-carboxamide], the negative-log Ki (pKi) at Rho kinase 1 and at Rho kinase 2 was 6.30 to 7.30 each time.
For the compound `CC1=C(C(=O)Nc2ccc3cnccc3c2)C(c2ccc(C(F)(F)F)c(F)c2)n2nc(CN3CCCCC3)cc2N1` (single isomer, unassigned) [Example 97B, 7-(3-fluoro-4-(trifluoromethyl)phenyl)-N-(isoquinolin-6-yl)-5-methyl-2-(piperidin-1-ylmethyl)-4,7-dihydropyrazolo[1,5-a]pyrimidine-6-carboxamide], the negative-log Ki (pKi) on Rho kinase 1 and on Rho kinase 2 was above 7.30 each time.
With `CC1=C(C(=O)Nc2ccc3cnccc3c2)C(c2ccc(C(F)(F)F)c(F)c2)n2nc(CN(C)CC3CCN(C)CC3)cc2N1` (single isomer, unassigned) [Example 104A, 7-(3-fluoro-4-(trifluoromethyl)phenyl)-N-(isoquinolin-6-yl)-5-methyl-2-((methyl((1-methylpiperidin-4-yl)methyl)amino)methyl)-4,7-dihydropyrazolo[1,5-a]pyrimidine-6-carboxamide], the pKi on Rho kinase 1 and on Rho kinase 2 was above 7.30 throughout.
Take `CC1=C(C(=O)Nc2ccc3cnccc3c2)C(c2ccc(C(F)(F)F)c(F)c2)n2nc(CN(C)CC3CCN(C)CC3)cc2N1` (single isomer, unassigned) [Example 104B, 7-(3-fluoro-4-(trifluoromethyl)phenyl)-N-(isoquinolin-6-yl)-5-methyl-2-((methyl((1-methylpiperidin-4-yl)methyl)amino)methyl)-4,7-dihydropyrazolo[1,5-a]pyrimidine-6-carboxamide]: the negative-log Ki (pKi) on Rho kinase 1 is 6.30 to 7.30; on Rho kinase 2 it was above 7.30.
As for `CC1=C(C(=O)Nc2ccc3cnccc3c2)C(c2ccc(C)c(F)c2)n2nc(CN(C)C)cc2N1` (single isomer, unassigned) [Example 110A, 2-((dimethylamino)methyl)-7-(3-fluoro-4-methylphenyl)-N-(isoquinolin-6-yl)-5-methyl-4,7-dihydropyrazolo[1,5-a]pyrimidine-6-carboxamide], the negative logarithm of the Ki (pKi) on Rho kinase 1 and at Rho kinase 2 was 6.30 to 7.30 in each case.
`CC1=C(C(=O)Nc2ccc3cnccc3c2)C(c2ccc(C)c(F)c2)n2nc(CN(C)C)cc2N1` (single isomer, unassigned) [Example 110B, 2-((dimethylamino)methyl)-7-(3-fluoro-4-methylphenyl)-N-(isoquinolin-6-yl)-5-methyl-4,7-dihydropyrazolo[1,5-a]pyrimidine-6-carboxamide]: the pKi at Rho kinase 1 and at Rho kinase 2 was above 7.30 each time.
Regarding `CC1=C(C(=O)Nc2ccc3cnccc3c2)C(c2ccc(C)c(F)c2F)n2nc(CN(C)C)cc2N1` (single isomer, unassigned) [Example 121b, 7-(2,3-difluoro-4-methylphenyl)-2-((dimethylamino)methyl)-N-(isoquinolin-6-yl)-5-methyl-4,7-dihydropyrazolo[1,5-a]pyrimidine-6-carboxamide], the pKi at Rho kinase 1 and at Rho kinase 2 was above 7.30 each time.
Take `CC1=C(C(=O)Nc2ccc3cnccc3c2)C(c2ccc(C(F)(F)F)c(F)c2F)n2nc(CN(C)C)cc2N1` (single isomer, unassigned) [Example 122a, 7-(2,3-difluoro-4-(trifluoromethyl)phenyl)-2-((dimethylamino)methyl)-N-(isoquinolin-6-yl)-5-methyl-4,7-dihydropyrazolo[1,5-a]pyrimidine-6-carboxamide]: the pKi on Rho kinase 1 and on Rho kinase 2 was below 6.30 in each case.
Consider `CC1=C(C(=O)Nc2ccc3cnccc3c2)C(c2ccc(C(F)(F)F)c(F)c2F)n2nc(CN(C)C)cc2N1` (single isomer, unassigned) [Example 122b, 7-(2,3-difluoro-4-(trifluoromethyl)phenyl)-2-((dimethylamino)methyl)-N-(isoquinolin-6-yl)-5-methyl-4,7-dihydropyrazolo[1,5-a]pyrimidine-6-carboxamide], for which the negative logarithm of the Ki (pKi) at Rho kinase 1 and on Rho kinase 2 was above 7.30 in each case.
Turning to `CC1=C(C(=O)Nc2ccc3cnccc3c2)C(C2Cc3ccccc3C2)n2nc(CN(C)C)cc2N1` (single isomer, unassigned) [Example 124a, 7-(2,3-dihydro-1H-inden-2-yl)-2-((dimethylamino)methyl)-N-(isoquinolin-6-yl)-5-methyl-4,7-dihydropyrazolo[1,5-a]pyrimidine-6-carboxamide], the negative-log Ki (pKi) at Rho kinase 1 and at Rho kinase 2 was below 6.30 each time.
As for `CC1=C(C(=O)Nc2ccc3cnccc3c2)C(C2Cc3ccccc3C2)n2nc(CN(C)C)cc2N1` (single isomer, unassigned) [Example 124b, 7-(2,3-dihydro-1H-inden-2-yl)-2-((dimethylamino)methyl)-N-(isoquinolin-6-yl)-5-methyl-4,7-dihydropyrazolo[1,5-a]pyrimidine-6-carboxamide], the negative-log Ki (pKi) on Rho kinase 1 and on Rho kinase 2 was above 7.30 each time.
`CC1=C(C(=O)Nc2ccc3cnccc3c2)C(c2ccc(C(F)(F)F)c(F)c2)n2nc(C(=O)NCCN3CCCCC3)nc2N1` (single isomer, unassigned) [Example 129a, 7-(3-fluoro-4-(trifluoromethyl)phenyl)-N6-(isoquinolin-6-yl)-5-methyl-N2-(2-(piperidin-1-yl)ethyl)-4,7-dihydro-[1,2,4]triazolo[1,5-a]pyrimidine-2,6-dicarboxamide]: the negative logarithm of the Ki (pKi) on Rho kinase 1 and at Rho kinase 2 was above 7.30 in each case.
Consider `CC1=C(C(=O)Nc2ccc3cnccc3c2)C(c2ccc(C(F)(F)F)c(F)c2)n2nc(NC(=O)c3ccc(CN(C)C)cc3)cc2N1` (single isomer, unassigned) [Example 137A, 2-(4-((Dimethylamino)methyl)benzamido)-7-(3-fluoro-4-(trifluoromethyl)-phenyl)-N-(isoquinolin-6-yl)-5-methyl-4,7-dihydropyrazolo[1,5-a]pyrimidine-6-carboxamide], for which the pKi at Rho kinase 1 and at Rho kinase 2 was below 6.30 in each case.

One may read the pKi as −log10 of the Ki, conventionally taken in molar units.
